Source: ChEMBL document CHEMBL1201862, “PubChem BioAssay data set” (2004)
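Values below derive from 48-hour exposures of cells grown in 96-well plates, with endpoints linearly interpolated between the two concentrations bracketing the appropriate inhibition level. Here, GI50 denotes the concentration required for 50% inhibition of growth.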 Activity calls are given as the source filed them. No stated cut-off is given here; in the data, active = GI50 up to about 1.1 µM and inactive = higher.

Experiments:
Experiment in all cases: NCI anticancer screen, dose series, 48 h
A498 = tested on: A498
SF-268 = tested on: SF-268
MDA-MB-435 = tested on: MDA-MB-435
NCI-H460 = tested on: NCI-H460
SF-539 = tested on: SF-539
KM12 = tested on: KM12
786-0 = tested on: 786-0
SNB-19 = tested on: SNB-19
SF-295 = tested on: SF-295
TK-10 = tested on: TK-10
MDA-N = tested on: MDA-N
SK-MEL-2 = tested on: SK-MEL-2
CCRF-CEM = tested on: CCRF-CEM
UO-31 = tested on: UO-31
CAKI-1 = tested on: CAKI-1
U-251 = tested on: U-251
UACC-62 = tested on: UACC-62
HT-29 = tested on: HT-29
OVCAR-8 = tested on: OVCAR-8
MCF7 = tested on: MCF7
MDA-MB-231 = tested on: MDA-MB-231
NCI-H23 = tested on: NCI-H23
Hs-578T = tested on: Hs-578T
MOLT-4 = tested on: MOLT-4
SR = tested on: SR
ACHN = tested on: ACHN
NCI-H522 = tested on: NCI-H522
RPMI-8226 = tested on: RPMI-8226
HCT-116 = tested on: HCT-116
SK-MEL-28 = tested on: SK-MEL-28
Malme-3M = tested on: Malme-3M
LOX IMVI = tested on: LOX IMVI
SK-MEL-5 = tested on: SK-MEL-5
UACC-257 = tested on: UACC-257
RXF 393 = tested on: RXF 393
DU-145 = tested on: DU-145
SW-620 = tested on: SW-620
HCT-15 = tested on: HCT-15
PC-3 = tested on: PC-3
NCI/ADR-RES = tested on: NCI/ADR-RES
OVCAR-5 = tested on: OVCAR-5
IGROV-1 = tested on: IGROV-1
HOP-62 = tested on: HOP-62
EKVX = tested on: EKVX
OVCAR-3 = tested on: OVCAR-3
OVCAR-4 = tested on: OVCAR-4
SNB-75 = tested on: SNB-75
COLO 205 = tested on: COLO 205
BT-549 = tested on: BT-549
SN12C = tested on: SN12C
K562 = tested on: K562
HCC 2998 = tested on: HCC 2998
M14 = tested on: M14
NCI-H226 = tested on: NCI-H226
A549 = tested on: A549
HL-60 = tested on: HL-60
SK-OV-3 = tested on: SK-OV-3
T47D = tested on: T47D
HOP-92 = tested on: HOP-92

O=C1Sc2cc3ccccc3cc2C(=O)Sc2cc3ccccc3cc21
GI50 (A498): > 100 µM (inactive) | GI50 (SF-268): 26 µM (inactive) | GI50 (MDA-MB-435): 30.8 µM (inactive) | GI50 (NCI-H460): 41.6 µM (inactive) | GI50 (SF-539): 31.9 µM (inactive) | GI50 (KM12): 33 µM (inactive) | GI50 (786-0): 15.4 µM (inactive) | GI50 (SNB-19): 47.1 µM (inactive) | GI50 (SF-295): > 87.3 µM (inactive) | GI50 (TK-10): 55.2 µM (inactive) | GI50 (MDA-N): 29 µM (inactive) | GI50 (SK-MEL-2): 23 µM (inactive) | GI50 (CCRF-CEM): 2.6 µM (inactive) | GI50 (UO-31): 19.5 µM (inactive) | GI50 (CAKI-1): 32.2 µM (inactive) | GI50 (U-251): 29.6 µM (inactive) | GI50 (UACC-62): 24.8 µM (inactive) | GI50 (HT-29): 28 µM (inactive) | GI50 (OVCAR-8): 24.5 µM (inactive) | GI50 (MCF7): 32.4 µM (inactive) | GI50 (MDA-MB-231): > 54.6 µM (inactive) | GI50 (NCI-H23): 43.3 µM (inactive) | GI50 (Hs-578T): 44.6 µM (inactive) | GI50 (MOLT-4): 15.9 µM (inactive) | GI50 (SR): 454 nM (active) | GI50 (ACHN): 28.9 µM (inactive) | GI50 (NCI-H522): 7.45 µM (inactive) | GI50 (RPMI-8226): 6.68 µM (inactive) | GI50 (HCT-116): 17.4 µM (inactive) | GI50 (SK-MEL-28): 28.6 µM (inactive) | GI50 (Malme-3M): 34.9 µM (inactive) | GI50 (LOX IMVI): 19 µM (inactive) | GI50 (SK-MEL-5): 50.8 µM (inactive) | GI50 (UACC-257): 27.8 µM (inactive) | GI50 (RXF 393): 17.7 µM (inactive) | GI50 (DU-145): 58.7 µM (inactive) | GI50 (SW-620): 30.3 µM (inactive) | GI50 (HCT-15): 22.8 µM | GI50 (PC-3): 33.9 µM (inactive) | GI50 (NCI/ADR-RES): 29.1 µM (inactive) | GI50 (OVCAR-5): 36.1 µM (inactive) | GI50 (IGROV-1): 32.3 µM (inactive) | GI50 (HOP-62): 27.3 µM (inactive) | GI50 (EKVX): 76.2 µM (inactive) | GI50 (OVCAR-3): 21.1 µM (inactive) | GI50 (OVCAR-4): 23.2 µM (inactive) | GI50 (SNB-75): 38.8 µM (inactive) | GI50 (COLO 205): > 100 µM (inactive) | GI50 (BT-549): 32.3 µM (inactive) | GI50 (SN12C): 23.2 µM (inactive) | GI50 (K562): 27 µM (inactive) | GI50 (HCC 2998): 21.3 µM (inactive) | GI50 (M14): 27.8 µM (inactive) | GI50 (NCI-H226): > 100 µM (inactive) | GI50 (A549): 81.7 µM (inactive) | GI50 (HL-60): 7.87 µM (inactive) | GI50 (SK-OV-3): > 100 µM (inactive) | GI50 (T47D): 23.3 µM (inactive) | GI50 (HOP-92): 30.2 µM (inactive)
